Where “and” joins values, the source holds several entries; their conditions need not be identical. Equal entries are not always repeated.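 Where inhibition never reached the appropriate level, the endpoint shown equals the highest concentration tested. Otherwise, values were interpolated linearly from a five-concentration, 48-hour dose response in 96-well plates. At the GI50, growth is halved. Definition used: TGI = concentration required for complete inhibition of growth.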
These compounds were tested on CAKI-1 renal (assay: growth of human tumour cells (NCI), 48 h).

| SMILES | TGI [µM] | GI50 [µM] |
| --- | --- | --- |
| CCN(CCO)CC1CCCC2CCCCC21 (stereo not drawn) | > 100 | – |
| CC[C@@]1(O)C[C@H](OC2CC(N(C)C)C(O)C(C)O2)c2c(O)c3c(c(O)c2[C@H]1OC1CC(N(C)C)C(O)C(C)O1)C(=O)c1cccc(O)c1C3=O (stereo partly drawn) | 0.0545 | – |
| COC1(OC)CCC2C1C1CCC(OC)(OC)C21 (stereo not drawn) | > 50 | – |
| NNC(=O)Nc1cccnc1 | > 100 | – |
| CC/C=C\CCC/C=C1/C(=O)C=C[C@@H]1C/C=C\CCCC(=O)OC | 13.5 | 4.12 |
| COc1ccc(-c2nc3sccn3c2/C(N)=N/C(=N)N)cc1OC | > 100 | 87.7 |
| CCCCCCCCCCCOc1ccc(C(=O)C(=O)c2ccc(OCCCCCCCCCCC)c(OCCCCCCCCCCC)c2)cc1OCCCCCCCCCCC | > 100 | – |
| Cn1cnc([N+](=O)[O-])c1Sc1nnc(-c2cccnc2)n1C | 42.7 | – |
| CCOC(=O)C1=C(C)NC(=S)NC1c1ccccc1 (stereo not drawn) | > 41.2 | – |
| COC1=CC(=O)c2nc(-c3ccncc3)[nH]c2C1=O | > 100 | 86.6 |
| O=C(/C=C/c1ccccc1)NC1C=Nc2ccc(Cl)cc2NC1=O (stereo not drawn) | > 100 | – |
| COC1CCC2C(NS(=O)(=O)c3ccc(C)cc3)CCCC2O1 (stereo not drawn) (tested in a mixture with another compound) | > 34.5 | – |
| CC(C)C/C(CC(=O)CCC(=O)Nc1ccccc1[N+](=O)[O-])=N\NC(=O)c1cc2ccccc2cc1O | > 100 | – |
| O=C1/C(=C/c2cccc([N+](=O)[O-])c2)COc2ccc(O)cc21 | 3.58 | 1.78 |
| O=C(O)c1ccccc1[Se][Se]c1ccccc1C(=O)O | > 100 | – |
| COc1cc(CNc2cnc3cc(N)cc(N)c3n2)cc(OC)c1 | 52.3 | 24.8 |

| SMILES | TGI [µM] | GI50 [µM] |
| --- | --- | --- |
| CCCCC(=O)OCC(=O)[C@]1(O)Cc2c(O)c3c(c(O)c2[C@@H](OC2CC(NC(=O)C(F)(F)F)C(O)C(C)O2)C1)C(=O)c1c(OC)cccc1C3=O (stereo partly drawn) | 2.63 | – |
| O=C(O)CCc1coc2ccc(O)cc12 | > 100 | – |
| C[C@]12CC[C@H](O)CC1=CC[C@@H]1C2CC[C@]2(C)C(=O)N(N)C(=O)CC12 (stereo partly drawn) | > 100 | – |
| Clc1cc2nsnc2c(Cl)n1 | 24.5 | – |
| Cc1nc2ccccc2c(=O)n1-c1ccccc1I | > 100 | – |
| Cc1ccc(C(=O)/C(=C/c2ccc([N+](=O)[O-])cc2)SCc2ccc(Cl)cc2)cc1 | 4.9 | 1.7 |
| O=C(N/C(=C\c1ccc(/C=C(\NC(=O)c2ccccc2)c2nc3cc([N+](=O)[O-])ccc3[nH]2)cc1)c1nc2cc([N+](=O)[O-])ccc2[nH]1)c1ccccc1 | > 100 | – |
| CC1=C(C(=O)NCc2ccccc2)C(/C=C/c2ccccc2)C(C(=O)NCc2ccccc2)=C(C)N1 | > 100 | – |
| CC1(c2ccc(F)cc2)C(C#N)C(=O)NC(=O)C1C#N (stereo not drawn) | > 100 | – |
| O=C1C2C(C(=O)N1OS(=O)(=O)c1ccccc1)N(Cc1ccccc1)C(=O)N2Cc1ccccc1 (stereo not drawn) | > 100 | – |
| Cc1cc(C)nc(NS(=O)(=O)c2ccc(NC(=O)c3ccc(Cl)c4c(Nc5ccc(S(=O)(=O)Nc6nc(C)cc(C)n6)cc5)c5ccccc5nc34)cc2)n1 | > 100 | – |
| N#CC(c1ccc(Cl)cc1)c1cccc(C(C#N)c2ccc(Cl)cc2)n1 (stereo not drawn) | > 100 | – |
| CCCCCN(CCCCC)CCCNc1c2c(nc3ccc(Cl)cc13)CCCC2 | 6.83 | 2.18 |
| Cn1c2ccccc2c2c(Nc3ccccc3)c3ccccc3nc21 | 38.7 | 16.7 |
| O=S1(=O)c2ccccc2NC(c2ccc3ccccc3c2)CC1c1ccccc1F (stereo not drawn) | > 100 | – |
| Cc1ccc(NC2=C(Cl)C(=O)N(Cc3ccccc3)C2=O)cc1O | > 100 | 28.1 |

These compounds were tested on SNB-19 CNS (assay: growth of human tumour cells (NCI), 48 h).

| SMILES | TGI [µM] | GI50 [µM] |
| --- | --- | --- |
| CCN(CCO)CC1CCCC2CCCCC21 (stereo not drawn) | > 100 | – |
| CC[C@@]1(O)C[C@H](OC2CC(N(C)C)C(O)C(C)O2)c2c(O)c3c(c(O)c2[C@H]1OC1CC(N(C)C)C(O)C(C)O1)C(=O)c1cccc(O)c1C3=O (stereo partly drawn) | 11.1 | < 0.01 |
| COC1(OC)CCC2C1C1CCC(OC)(OC)C21 (stereo not drawn) | > 50 | – |
| NNC(=O)Nc1cccnc1 | > 100 | – |
| CC/C=C\CCC/C=C1/C(=O)C=C[C@@H]1C/C=C\CCCC(=O)OC | 17.7 | 4.84 |
| COc1ccc(-c2nc3sccn3c2/C(N)=N/C(=N)N)cc1OC | > 100 | 35.3 |
| CCCCCCCCCCCOc1ccc(C(=O)C(=O)c2ccc(OCCCCCCCCCCC)c(OCCCCCCCCCCC)c2)cc1OCCCCCCCCCCC | > 100 | – |
| Cn1cnc([N+](=O)[O-])c1Sc1nnc(-c2cccnc2)n1C | > 100 | – |
| CCOC(=O)C1=C(C)NC(=S)NC1c1ccccc1 (stereo not drawn) | > 22.5 | – |
| COC1=CC(=O)c2nc(-c3ccncc3)[nH]c2C1=O | > 100 | > 100 |
| O=C(/C=C/c1ccccc1)NC1C=Nc2ccc(Cl)cc2NC1=O (stereo not drawn) | > 100 | – |
| COC1CCC2C(NS(=O)(=O)c3ccc(C)cc3)CCCC2O1 (stereo not drawn) (tested in a mixture with another compound) | > 34.5 | – |
| CC(C)C/C(CC(=O)CCC(=O)Nc1ccccc1[N+](=O)[O-])=N\NC(=O)c1cc2ccccc2cc1O | > 100 | – |
| O=C1/C(=C/c2cccc([N+](=O)[O-])c2)COc2ccc(O)cc21 | 3.97 | 1.96 |
| O=C(O)c1ccccc1[Se][Se]c1ccccc1C(=O)O | 45 | – |
| CCCCC(=O)OCC(=O)[C@]1(O)Cc2c(O)c3c(c(O)c2[C@@H](OC2CC(NC(=O)C(F)(F)F)C(O)C(C)O2)C1)C(=O)c1c(OC)cccc1C3=O (stereo partly drawn) | 3.02 | – |
| O=C(O)CCc1coc2ccc(O)cc12 | > 100 | – |
| C[C@]12CC[C@H](O)CC1=CC[C@@H]1C2CC[C@]2(C)C(=O)N(N)C(=O)CC12 (stereo partly drawn) | > 100 | – |

| SMILES | TGI [µM] | GI50 [µM] |
| --- | --- | --- |
| Clc1cc2nsnc2c(Cl)n1 | 36.7 | – |
| Cc1cccc2c(=O)cc(-c3ccccc3)[nH]c12 | > 100 | – |
| COC(CN1C(=O)c2cccc3cccc(c23)C1=O)OC | > 100 | – |
| Cc1nc2ccccc2c(=O)n1-c1ccccc1I | > 100 | – |
| CC(=O)NNc1nc(C)c(C(=O)NNC(=O)C(=O)Nc2ccc(Cl)cc2)s1 | > 100 | – |
| Cc1ccc(C(=O)/C(=C/c2ccc([N+](=O)[O-])cc2)SCc2ccc(Cl)cc2)cc1 | 3.02 | 1.17 |
| O=C(N/C(=C\c1ccc(/C=C(\NC(=O)c2ccccc2)c2nc3cc([N+](=O)[O-])ccc3[nH]2)cc1)c1nc2cc([N+](=O)[O-])ccc2[nH]1)c1ccccc1 | > 100 | – |
| CC1=C(C(=O)NCc2ccccc2)C(/C=C/c2ccccc2)C(C(=O)NCc2ccccc2)=C(C)N1 | > 100 | – |
| CC1(c2ccc(F)cc2)C(C#N)C(=O)NC(=O)C1C#N (stereo not drawn) | > 100 | – |
| O=C1C2C(C(=O)N1OS(=O)(=O)c1ccccc1)N(Cc1ccccc1)C(=O)N2Cc1ccccc1 (stereo not drawn) | > 100 | – |
| Cc1cc(C)nc(NS(=O)(=O)c2ccc(NC(=O)c3ccc(Cl)c4c(Nc5ccc(S(=O)(=O)Nc6nc(C)cc(C)n6)cc5)c5ccccc5nc34)cc2)n1 | > 100 | – |
| COc1ccc2c3c1C(=O)CCCC3CO2 (stereo not drawn) | > 100 | – |
| N#CC(c1ccc(Cl)cc1)c1cccc(C(C#N)c2ccc(Cl)cc2)n1 (stereo not drawn) | > 100 | – |
| CCCCCN(CCCCC)CCCNc1c2c(nc3ccc(Cl)cc13)CCCC2 | 18.4 | 4.96 |
| O=C1/C(=C/c2ccccc2)CN(C(=O)C(Cl)(Cl)Cl)C/C1=C\c1ccccc1 | 10.7 | – |
| Cn1c2ccccc2c2c(Nc3ccccc3)c3ccccc3nc21 | > 100 | 11.5 |
| O=S1(=O)c2ccccc2NC(c2ccc3ccccc3c2)CC1c1ccccc1F (stereo not drawn) | > 100 | – |
| Cc1ccc(NC2=C(Cl)C(=O)N(Cc3ccccc3)C2=O)cc1O | > 100 | 41.2 |

What follows are compounds tested on HCT-15 colon (assay: growth of human tumour cells (NCI), 48 h).

| SMILES | TGI | GI50 [µM] |
| --- | --- | --- |
| CCN(CCO)CC1CCCC2CCCCC21 (stereo not drawn) | > 100 µM | – |
| CC[C@@]1(O)C[C@H](OC2CC(N(C)C)C(O)C(C)O2)c2c(O)c3c(c(O)c2[C@H]1OC1CC(N(C)C)C(O)C(C)O1)C(=O)c1cccc(O)c1C3=O (stereo partly drawn) | 0.971 µM and 1.29 µM | 0.0238 |
| COC1(OC)CCC2C1C1CCC(OC)(OC)C21 (stereo not drawn) | > 50 µM | – |
| NNC(=O)Nc1cccnc1 | > 100 µM | – |
| CC/C=C\CCC/C=C1/C(=O)C=C[C@@H]1C/C=C\CCCC(=O)OC | 5.13 µM | 2.1 |
| COc1ccc(-c2nc3sccn3c2/C(N)=N/C(=N)N)cc1OC | > 100 µM | > 100 |
| CCCCCCCCCCCOc1ccc(C(=O)C(=O)c2ccc(OCCCCCCCCCCC)c(OCCCCCCCCCCC)c2)cc1OCCCCCCCCCCC | > 100 µM | – |
| Cn1cnc([N+](=O)[O-])c1Sc1nnc(-c2cccnc2)n1C | 36.2 µM | – |
| CCOC(=O)C1=C(C)NC(=S)NC1c1ccccc1 (stereo not drawn) | > 56 µM | – |
| COC1=CC(=O)c2nc(-c3ccncc3)[nH]c2C1=O | > 100 µM | > 100 |
| O=C(/C=C/c1ccccc1)NC1C=Nc2ccc(Cl)cc2NC1=O (stereo not drawn) | 61 µM | – |
| COC1CCC2C(NS(=O)(=O)c3ccc(C)cc3)CCCC2O1 (stereo not drawn) (tested in a mixture with another compound) | > 34.5 µM | – |
| CC(C)C/C(CC(=O)CCC(=O)Nc1ccccc1[N+](=O)[O-])=N\NC(=O)c1cc2ccccc2cc1O | > 100 µM | – |
| O=C1/C(=C/c2cccc([N+](=O)[O-])c2)COc2ccc(O)cc21 | 3.49 µM | 1.7 |
| O=C(O)c1ccccc1[Se][Se]c1ccccc1C(=O)O | > 100 µM | – |
| COc1cc(CNc2cnc3cc(N)cc(N)c3n2)cc(OC)c1 | 38.1 µM | 17.6 |

Reference: PubChem BioAssay (NCI)
